Experimental data from patent US20030199516A1, “Methods of treating infection by drug resistant bacteria” (Genesoft, Inc., priority 2001, published 2003).

Legend:
[1] = molecular target: target sequence AAAAAGACAAAAA (351 bp fragment, Plasmid A); assay: Quantitative DNase I footprint titration; assay type: binding; settings: 351 bp A, 22° C., pH 7.0, read-out: Dissociation Constant Kd
From the text: (§1) Compounds (1) through (20) according to this invention were screened for their ability to bind to specified DNA target sequences, using DNase I footprinting. Generally, the procedure described in Dervan, WO 98/50582 (1998), was followed.
(§2) Three double stranded circular plasmids A, B, and C were used to prepare double stranded DNA-binding probes containing the target sequences for the DNase I footprint titration experiments. Plasmids A, B, and C had nucleotide sequences given by SEQ ID NO. I, SEQ ID NO. II, and SEQ ID NO. III, respectively.
(§3) The 3′-P32 end-labeled EcoRI/PvuII fragments from each plasmid were prepared by digesting the plasmids with EcoRI and PvuII with simultaneous fill-in using Sequenase v. 2.0, [alpha-P32]-deoxyadenosine-5′-triphosphate, and [alpha-P32]-thymidine-5′-triphosphate, and isolating the cloned fragments by nondenaturing gel electrophoresis. A and G sequencing reactions were carried out as described (See Maxam and Gilbert, Methods Enzymol., 1980, 65, 499-560; Iverson and Dervan, Methods Enzymol., 1987, 15, 7823-7830; Sambrook et al., 1989, Molecular Cloning, 2nd ed., Cold Spring Harbor Laboratory Press: Cold Spring Harbor, N.Y.) Standard methods were used for all DNA manipulations (Sambrook et al., ibid.) The cut sites for EcoRI and PvuII are indicated by bars in the respective maps of Plasmids A, B, and C in FIGS. 5, 6, and 7.
(§4) The 351 base pair dsDNA restriction fragment (SEQ ID NO. IV) of Plasmid A contained the target sequences AAAAAGCAAAAA, AAAAAGACAAAAA, and AAAAAGTACAAAAA. The 310 base pair dsDNA restriction fragment (SEQ ID NO. V) of Plasmid B contained the target sequences AGTACT, AATACT, and ATTACT. The 352 base pair dsDNA restriction fragment (SEQ ID NO. VI) of Plasmid C contained the target sequences TGACAATTAAT, GACAATTAATCA, AATTAATCAT, ACAATTA, and ACAATTAAT. These fragments were used for quantitative DNase I footprinting experiments. Compounds used in the method of this invention bind to at least one of the target sites with a equal to or less than 100 nM, preferably equal to or less than 50 nM, and more preferably equal to or less than 20 nM. The target sequences were selected for the identity with, or similarity to, promoter sites for bacterial genes.
(§5) Quantitative DNase I footprint titration experiments were carried out as described previously (Dervan, WO 98/50582, 1998) with the following changes. All reactions were carried out in a total volume of 400 μL, with compound stock solution or water added to 15,000 cpm radiolabeled restriction fragment affording final solution conditions of 10 mM Tris HCl, 10 mM KCl, 10 mM MgCl2, 5 mM CaCl2, pH 7.0 and 0.01 nM, 0.1 nM, 1.0 nM, 10.0 nM compound or no compound for reference lanes. The compounds were allowed to equilbrate at 22° C. for 16 h. Footprinting reactions were initiated with addition of 10 μL of a DNase I stock solution (at the appropriate concentration to give ˜50% intact DNA) containing 1 mM DTT and allowed to proceed for 7 min at 22° C. The reactions were stopped, ethanol precipitated, resuspended in loading buffer, heat denatured, and placed on ice as described previously (Dervan WO 98/50582, 1998). The reaction products were separated on a precast 8% polyacrylamide denaturing sequencing Castaway gel with 32 preformed wells from Stratagene in 1×TBE at 2000 V. Gels were dried according to the manufacturer and exposed to a storage phosphor screen (Molecular Dynamics). Quantitation and data analysis were carried out as described in Dervan, WO 98/50582, 1998.

[2] = molecular target: target sequence AAAAAGCAAAAA (351 bp fragment, Plasmid A); assay: Quantitative DNase I footprint titration; assay type: binding; settings: 351 bp A, 22° C., pH 7.0, read-out: Dissociation Constant Kd
From the text: as §1, §2, §3, §4, §5

[3] = molecular target: target sequence TGACAATTAAT (352 bp fragment, Plasmid C); assay: Quantitative DNase I footprint titration; assay type: binding; settings: 352 bp C, 22° C., pH 7.0, read-out: Dissociation Constant Kd
From the text: as §1, §2, §3, §4, §5

[4] = tested on: Enterococcus faecium ATCC 51559; assay: NCCLS broth microdilution MIC; assay type: cell-based; settings: Col. D = E. faecium ATCC 51559 (VRE)
From the text: (§6) In vitro antibacterial activity data were collected for the following Gram-positive bacteria: Staphylococcus aureus (ATCC 27660, ATCC 33591 and ATCC 43300, all methicillin resistant strains (MRSA's)); Streptococcus pneumoniae (ATCC 51422, a penicillin resistant strain (PRSP)), Enterococcus faecium (ATCC 51559, and/or a vancomycin resistant strain (VRE)). Additionally, antifungal activity data were collected for Candida albicans (ATCC 38247). Minimal inhibition concentrations (MIC's) were determined using the National Committee for Clinical Laboratory Standards (NCCLS) broth microdilution assay in microtiter plates, as set forth in: (1) the guidelines of the National Committee for Clinical Laboratory Standards (NCCLS) Document M7-A4 (NCCLS, 1997); (2) the guidelines of the National Committee for Clinical Laboratory Standards (NCCLS) Document M11-A4 (NCCLS, 1997); and (3) the guidelines and reference method of the National Committee for Clinical Laboratory Standards (NCCLS) Document M27-T (NCCLS, 1995). For antifungal essays, the method recommended in Murray, PR., 1995 Manual of Clinical Microbiology (ASM Press, Washington, D.C.), was employed.

[5] = tested on: Streptococcus pneumoniae ATCC 51422; assay: NCCLS broth microdilution MIC; assay type: cell-based; settings: Col. E = S. pneumoniae ATCC 51422 (PRSP)
From the text: as §6

S. aureus ATCC 27660 = assay: NCCLS broth microdilution MIC; assay type: cell-based, Staphylococcus aureus; settings: Col. A = S. aureus ATCC 27660 (MRSA)
From the text: as §6

S. aureus ATCC 33591 = assay: NCCLS broth microdilution MIC; assay type: cell-based, Staphylococcus aureus; settings: Col. B = S. aureus ATCC 33591 (MRSA)
From the text: as §6

[6] = tested on: Candida albicans ATCC 38247; assay: Antifungal MIC; assay type: cell-based; settings: Col. F = C. albicans ATCC 38247
From the text: as §6

CN(C)CCCNC(=O)CCNC(=O)c1cc(NC(=O)c2cc(NC(=O)CCNC(=O)c3cc(NC(=O)c4cc(NC(=O)c5cc(Br)c(Br)s5)cn4C)cn3C)cn2C)cn1C [Compound 1]
Kd [1]: 0.01 nM | Kd [2]: 0.01 nM | Kd [3]: 2 nM | Minimum Inhibitory Concentration (MIC) [4]: − (− = MIC > 2) | Minimum Inhibitory Concentration (MIC) [5]: ++ (++ = MIC ≦ 1) | Minimum Inhibitory Concentration (MIC) (S. aureus ATCC 27660): ++ (++ = MIC ≦ 1) | Minimum Inhibitory Concentration (MIC) (S. aureus ATCC 33591): + (+ = MIC ≦ 2) | Minimum Inhibitory Concentration (MIC) [6]: >32 µg/mL
